Test results: ChEMBL document CHEMBL1145005 (J Med Chem, 2003)
Values belong to the compound of their own block, whether it stands above or below them.

Experiments:
[1] = Log P / Log D value was determined; assay type: physicochemical; conditions: octanol/water
[2] = Log D value at pH 7.4; assay type: physicochemical; conditions: buffer
[3] = target: Aldo-keto reductase family 1 member B1 (Homo sapiens, UniProt P15121); experiment: Inhibition of human recombinant Aldose reductase […]
[4] = Oral bioavailability in rat; assay type: ADME, organism-based; conditions: in vivo, read-out: Bioavailability_oral
[5] = system: Rattus norvegicus; experiment: Effective dose to inhibit aldose reductase activity by normalizing the elevated lens sorbitol levels in sciatic nerve of chronically diabetic rat orally; assay type: functional; conditions: po
[6] = system: Rattus norvegicus; experiment: Effective dose to inhibit aldose reductase activity by normalizing the elevated lens fructose levels in sciatic nerve of chronically diabetic rat orally; assay type: functional; conditions: po
[7] = Maximum concentration of drug in plasma was determined at 2 mg/kg orally; assay type: ADME, organism-based; set-up: dose 2 mg/kg, route oral; conditions: in vivo, po
[8] = Plasma t1/2 of compound was determined in diabetic rat; assay type: ADME, organism-based
[9] = Partition coefficient (logP); assay type: physicochemical; conditions: octanol/water
[10] = system: Rattus norvegicus; experiment: Aldose reductase inhibition activity in vivo by normalizing the elevated nerve fructose levels in sciatic nerve of acutely diabetic rat at 20 mg/kg; assay type: functional
[11] = system: Rattus norvegicus; experiment: Aldose reductase inhibition activity in vivo by normalizing the elevated nerve sorbitol levels in sciatic nerve of acutely diabetic rat at 20 mg/kg; assay type: functional
[12] = system: Rattus norvegicus; experiment: Aldose reductase inhibition activity in vivo by normalizing the elevated nerve fructose levels in sciatic nerve of acutely diabetic rat at 10 mg/kg; assay type: functional
[13] = system: Rattus norvegicus; experiment: Aldose reductase inhibition activity in vivo by normalizing the elevated nerve sorbitol levels in sciatic nerve of acutely diabetic rat at 10 mg/kg; assay type: functional
[14] = species: Rattus norvegicus; experiment: Effective dose to inhibit aldose reductase activity by normalizing the elevated nerve sorbitol levels in sciatic nerve of chronically diabetic rat
[15] = species: Rattus norvegicus; experiment: Effective dose to inhibit aldose reductase activity by normalizing the elevated nerve fructose levels in sciatic nerve of chronically diabetic rat
[16] = system: Rattus norvegicus; experiment: Aldose reductase inhibition activity in vivo by normalizing the elevated nerve sorbitol levels in sciatic nerve of acutely diabetic rat at 300 mg/kg; assay type: functional
[17] = system: Rattus norvegicus; experiment: Aldose reductase inhibition activity in vivo by normalizing the elevated nerve fructose levels in sciatic nerve of acutely diabetic rat at 300 mg/kg; assay type: functional
[18] = pKa value of compound was determined; assay type: physicochemical
[19] = Dissociation constant was determined; assay type: physicochemical
[20] = system: Rattus norvegicus; experiment: Aldose reductase inhibition activity in vivo by normalizing the elevated lens sorbitol levels in sciatic nerve of acutely diabetic rat at 20 mg/kg; conditions: read-out: Inhibition

SMILES: O=c1ccc(S(=O)(=O)c2cc3ccccc3[nH]2)n[nH]1
IC50 [3]: 5000 nM

SMILES: Cc1ccc(S(=O)(=O)c2ccc(O)nn2)cc1
IC50 [3]: 1900 nM

SMILES: O=S(=O)(c1ccc(O)nn1)c1ccccc1-c1ccccc1
IC50 [3]: 2200 nM

SMILES: O=S(=O)(c1ccc(O)nn1)c1nc2ccccc2s1
IC50 [3]: 450 nM

SMILES: O=c1ccc(S(=O)(=O)c2ccc(F)cc2Cl)n[nH]1
inhibition in vivo at 10 mg/kg [12]: 46%
IC50 [3]: 280 nM
inhibition in vivo at 10 mg/kg [13]: 91%

SMILES: O=c1ccc(S(=O)(=O)c2ccccc2Br)n[nH]1
IC50 [3]: 210 nM

SMILES: COc1ccc(S(=O)(=O)c2ccc(=O)[nH]n2)cc1
IC50 [3]: 2000 nM

SMILES: O=S(=O)(c1ccccc1)c1ccc(O)nn1
inhibition in vivo at 300 mg/kg [16]: 95%
inhibition in vivo at 300 mg/kg [17]: 89%
IC50 [3]: 600 nM
pKa [18]: 7.1

SMILES: O=C1NC(=O)[C@@]2(CCOc3ccc(F)cc32)N1 [SORBINIL]
pKa [19]: > 8

SMILES: O=C(O)Cc1nn(Cc2nc3cc(C(F)(F)F)ccc3s2)c(=O)c2ccccc12 [ZOPOLRESTAT]
ED90 [14]: 10 mg/kg
pKa [18]: 3
ED90 [15]: 40 mg/kg
inhibition in vivo at 20 mg/kg [20]: 41%

Continued by falling IC50 [3], values first:

IC50 [3]: 190 nM
SMILES: O=c1ccc(S(=O)(=O)c2ccc(Cl)cc2Cl)n[nH]1
ED90 [14]: 5 mg/kg
inhibition in vivo at 10 mg/kg [12]: 73%
inhibition in vivo at 10 mg/kg [13]: 95%
ED90 [15]: 20 mg/kg

IC50 [3]: 170 nM
SMILES: O=c1ccc(S(=O)(=O)c2ccccc2Cl)n[nH]1
inhibition in vivo at 20 mg/kg [10]: 68%
inhibition in vivo at 20 mg/kg [11]: 96%

IC50 [3]: 150 nM
SMILES: O=c1ccc(S(=O)(=O)c2cc3ccccc3o2)n[nH]1

IC50 [3]: 150 nM
SMILES: O=c1ccc(S(=O)(=O)c2cc3ccccc3s2)n[nH]1

IC50 [3]: 140 nM
SMILES: O=c1ccc(S(=O)(=O)c2ccc(Br)cc2F)n[nH]1

Log P/Log D [1]: 0.81
logD [2]: 2.46
IC50 [3]: 0.84 nM
bioavailability [4]: 98%
Cmax [7]: 9000 ng/mL
half-life [8]: 26 h
logP [9]: 3.05
SMILES: Cc1c(S(=O)(=O)c2ccc(=O)[nH]n2)oc2ccc(Cl)cc12
ED90 [5]: 0.8 mg/kg
ED90 [6]: 3 mg/kg
